Laboratory results as given in US3955959A, “Herbicide for use in transplanted rice” (priority 1974, dated 1976).

Legend:
[1] = system: Ammannia spp, Amaranthus retroflexus, Elatine triandra, Jussiaea decurrens, Lindernia pyxidaria, Rotala Sphenoclea zeylanica and Partulaca oleracea; experiment: Weeds effectively treated to date: dicotyledonous broadleaf weeds; format: in vivo
[2] = system: Ec (Echinochloa crusgalli); experiment: Example 8 residual weed control, JAAPR, Japan; format: in vivo; details: Table 8 (Ec and Ri)
Procedure: This example describes the results of tests conducted at the JAAPR Laboratory in Japan to determine the comparative residual effect of Herbicide A vis-a-vis that of commercial rice herbicides in Japan.
In the tests according to this example, the test weed species Echinochloa crusgalli (Ec) and Rotala indica (Ri), were grown in clay loam soil having 2.3% organic matter and a percolation rate of 3 cm/day for 2 days. Herbicide A was applied to the weeds at an expected use rate of about 0.67-1.34 lbs/ac (0.75-1.5 kgs/ha) and the commercial rice herbicides, whose active ingredients are identified below, were applied at their indicated expected use rates: […]

carp = experiment: Example 10 fish toxicity, Japanese protocol; format: in vivo
Procedure: In view of the importance of fish toxicological considerations, tests were conducted, using carp according to the Japanese protocol, to compare toxicity data for Herbicides A and B; results of those tests are shown in Table 10.

[3] = system: weeds in transplanted rice; experiment: Example 6 overall; format: in vivo
Procedure: (§1) In this example, the efficacy of Herbicide A is presented for a variety of weeds in the presence of ordinary and infant transplant rice. In this example, tests were conducted at the said JAAPR Lab at different times of the year. "Early season" transplants were made in April and "Normal season" transplants were made in July. The size of the transplants at the respective seasons were: Season Seedling Type Plant Height (cm) Leaf Stage ______________________________________ Early Ordinary 16.5 4.5 Early Infant 9.1 2.4 Normal Ordinary 41.7 5.3 Normal Infant 14.7 1.9 ______________________________________
(§2) Duplicate treatments were used. At the time of application of the herbicide, the status of the grass (EC) was as follows: […]

[4] = system: transplanted rice seedlings; experiment: Example 6 rice seedling injury; format: in vivo
Procedure: as §1, §2

[5] = system: Cyperus difformis, Cyperus iria, Cyperus serotinus, Eleocharis acicularis, Eleocharis kuroguwai, Fimbristylis spp, Scirpus hotarui and Scirpus spp; experiment: Weeds effectively treated to date: sedges; format: in vivo
[6] = system: Mv (Monochoria vaginalis); experiment: Example 6 weed control, JAAPR, Japan; format: in vivo
Procedure: as §1, §2

Lp (Lindernia pyxidaria) = experiment: Example 6 weed control, JAAPR, Japan; format: in vivo
Procedure: as §1, §2

Cc (Commelina communis) = experiment: Example 7 greenhouse preemergence activity; format: in vivo
Procedure: In a further comparative study of the preemergence activity of Herbicides A and B, a variety of weeds and upland direct-seeded rice were tested under greenhouse conditions. The present invention is not concerned with the use of Herbicide A in direct-seeded rice. The primary purpose of the experimental work in this example is to compare relative herbicidal activity of Herbicides A and B against the weeds shown in Table 7; most of these weeds were not available for tests with transplanted rice. Although the relative selectivity of these herbicides in upland rice is also evident, that aspect of the tests is more or less incidental to the purpose of this example.
In this example, rice seeds and seeds of the weeds shown in Table 7 were sown in Ray silt loam soil at a depth of 0.5 inch (1.27 cm) in containers for the soil in a greenhouse. Herbicides A and B were applied to the surface of the soil at a spray volume equivalent to 20 gals/acre (187.1 liters/hectare), followed by 0.5 in (1.27 cm) of overhead irrigation. Temperature and relative humidity in the greenhouse were on the order of 85°F (29°C) and 75%, respectively. Observations were made at 21-28 days after seeding.
In Table 7 are shown the average rates of herbicide required to cause a growth reduction of 85% of the weeds ("GR85 "), and the average rate of herbicide required to cause a growth reduction of 15% ("GR15 ") of the rice plants (Oryza sativa, "Os", variety Bluebelle).

weeds in rice fields = details: prior art; cited from earlier work
[7] = Early season, ordinary, 1.0 kg/ha, 3 DAT
[8] = Early season, ordinary, 1.0 kg/ha, 12 DAT
[9] = Early season, ordinary, 1.0 kg/ha, -2 DAT
[10] = Early season, ordinary, .5 kg/ha, 3 DAT
[11] = Early season, ordinary, .5 kg/ha, 12 DAT
[12] = Early season, ordinary, .5 kg/ha, -2 DAT
[13] = Normal season, infant, 1.0 kg/ha, 3 DAT
[14] = Normal season, infant, 1.0 kg/ha, 7 DAT
[15] = Normal season, infant, 1.0 kg/ha, -2 DAT
[16] = Normal season, infant, .5 kg/ha, 3 DAT
[17] = Normal season, infant, .5 kg/ha, 7 DAT
[18] = Normal season, infant, .5 kg/ha, -2 DAT
[19] = Normal season, ordinary, 1.0 kg/ha, 3 DAT
[20] = Normal season, ordinary, 1.0 kg/ha, 7 DAT
[21] = Normal season, ordinary, 1.0 kg/ha, -2 DAT
[22] = Normal season, ordinary, .5 kg/ha, 3 DAT
[23] = Normal season, ordinary, .5 kg/ha, 7 DAT
[24] = Normal season, ordinary, .5 kg/ha, -2 DAT

Which “effectively treated dicotyledonous broadleaf weeds” value [1] does the source give for CCCCOCN(C(=O)CCl)c1c(C)cccc1C(C)(C)C [Herbicide A, n-(butoxymethyl)-6'-tert-butyl-2-chloro-o-acetotoluidide] here?
The value was “effectively treated”.

What about the residual activity [2] of the same compound?
The residual activity was “over 30 days”.

What about the “toxicity to carp relative to Herbicide B” value (carp; equal concentration basis) of the same compound?
Its value is “about one-half”.

What about the “toxicity in the field relative to Herbicide B” value (carp; taking expected use rate one-third of B) of the same compound?
Its value is “about one-sixth”.

What about the “weed control in words” value ([3]; all weeds except Sagittaria (Sp)) of the same compound?
The value was “very effective”.

What about the “toxicity to weeds and rice, normal vs early season” value ([3]; normal season vs early season) of the same compound?
The value was “slightly more toxic to both weeds and rice”.

What about the efficacious application period ([3]; relative to transplanting) of the same compound?
Its efficacious application period is “from 2 days before transplanting to 12 DAT”.

And the “Rice Seedling Injury (%)” value [4, 7]?
The value was 5%.

And the “Rice Seedling Injury (%)” value [4, 8]?
The value was 0%.

What about the “Rice Seedling Injury (%)” value [4, 9] of the same compound?
The value was 10%.

What about the “Rice Seedling Injury (%)” value [4, 10] of the same compound?
The value was 0%.

What about the “Rice Seedling Injury (%)” value [4, 11] of the same compound?
The value was 0%.

What about the “Rice Seedling Injury (%)” value [4, 12] of the same compound?
The value was 10%.

What about the “Rice Seedling Injury (%)” value [4, 13] of the same compound?
The value was 20%.

What about the “Rice Seedling Injury (%)” value [4, 14] of the same compound?
The value was 10%.

And the “Rice Seedling Injury (%)” value [4, 15]?
The value was 40%.

And the “Rice Seedling Injury (%)” value [4, 16]?
The value was 15%.

And the “Rice Seedling Injury (%)” value [4, 17]?
Its value is 10%.

And the “Rice Seedling Injury (%)” value [4, 18]?
The value was 20%.

What about the “Rice Seedling Injury (%)” value [4, 19] of the same compound?
The value was 15%.

What about the “Rice Seedling Injury (%)” value [4, 20] of the same compound?
The value was 10%.

And the “Rice Seedling Injury (%)” value [4, 21]?
Its value is 30%.

And the “Rice Seedling Injury (%)” value [4, 22]?
The value was 15%.

And the “Rice Seedling Injury (%)” value [4, 23]?
The value was 5%.

And the “Rice Seedling Injury (%)” value [4, 24]?
Its value is 25%.

What about the “rice toxicity, infant vs ordinary seedlings” value ([4]; infant vs ordinary) of the same compound?
The value was “No difference”.

What about the “rice toxicity, preemergence vs later treatments” value ([4]; preemergence treatments vs later) of the same compound?
Its value is “somewhat more toxic to rice”.

What about the effectively treated sedges [5] of the same compound?
Its effectively treated sedges is “effectively treated”.

What about the “% Weed Control (Mv)” value [6, 7] of the same compound?
The value was 100%.

What about the “% Weed Control (Mv)” value [6, 8] of the same compound?
Its value is 95%.

And the “% Weed Control (Mv)” value [6, 9]?
Its value is 100%.

And the “% Weed Control (Mv)” value [6, 10]?
Its value is 95%.

And the “% Weed Control (Mv)” value [6, 11]?
The value was 95%.

What about the “% Weed Control (Mv)” value [6, 12] of the same compound?
Its value is 95%.

And the “% Weed Control (Mv)” value [6, 13]?
The value was 100%.

And the “% Weed Control (Mv)” value [6, 14]?
The value was 85%.

And the “% Weed Control (Mv)” value [6, 15]?
The value was 100%.

What about the “% Weed Control (Mv)” value [6, 16] of the same compound?
Its value is 100%.

And the “% Weed Control (Mv)” value [6, 17]?
The value was 70%.

And the “% Weed Control (Mv)” value [6, 18]?
Its value is 100%.

What about the “% Weed Control (Mv)” value [6, 19] of the same compound?
The value was 100%.

And the “% Weed Control (Mv)” value [6, 20]?
The value was 100%.

What about the “% Weed Control (Mv)” value [6, 21] of the same compound?
Its value is 100%.

And the “% Weed Control (Mv)” value [6, 22]?
Its value is 100%.

And the “% Weed Control (Mv)” value [6, 23]?
Its value is 95%.

What about the “% Weed Control (Mv)” value [6, 24] of the same compound?
Its value is 100%.

And the “% Weed Control (Lp)” value (Lp (Lindernia pyxidaria); [7])?
The value was 100%.

And the “% Weed Control (Lp)” value (Lp (Lindernia pyxidaria); [8])?
The value was 95%.

And the “% Weed Control (Lp)” value (Lp (Lindernia pyxidaria); [9])?
The value was 100%.

What about the “% Weed Control (Lp)” value (Lp (Lindernia pyxidaria); [10]) of the same compound?
The value was 100%.

And the “% Weed Control (Lp)” value (Lp (Lindernia pyxidaria); [11])?
The value was 85%.

And the “% Weed Control (Lp)” value (Lp (Lindernia pyxidaria); [12])?
Its value is 100%.

And the “% Weed Control (Lp)” value (Lp (Lindernia pyxidaria); [13])?
The value was 100%.

What about the “% Weed Control (Lp)” value (Lp (Lindernia pyxidaria); [14]) of the same compound?
The value was 100%.

What about the “% Weed Control (Lp)” value (Lp (Lindernia pyxidaria); [15]) of the same compound?
Its value is 100%.

What about the “% Weed Control (Lp)” value (Lp (Lindernia pyxidaria); [16]) of the same compound?
The value was 100%.

And the “% Weed Control (Lp)” value (Lp (Lindernia pyxidaria); [17])?
The value was 100%.

And the “% Weed Control (Lp)” value (Lp (Lindernia pyxidaria); [18])?
The value was 100%.

What about the “% Weed Control (Lp)” value (Lp (Lindernia pyxidaria); [19]) of the same compound?
The value was 100%.

What about the “% Weed Control (Lp)” value (Lp (Lindernia pyxidaria); [20]) of the same compound?
The value was 100%.

And the “% Weed Control (Lp)” value (Lp (Lindernia pyxidaria); [21])?
Its value is 100%.

What about the “% Weed Control (Lp)” value (Lp (Lindernia pyxidaria); [22]) of the same compound?
Its value is 100%.

What about the “% Weed Control (Lp)” value (Lp (Lindernia pyxidaria); [23]) of the same compound?
The value was 100%.

And the “% Weed Control (Lp)” value (Lp (Lindernia pyxidaria); [24])?
Its value is 100%.

What about the “resistance of Cc” value (Cc (Commelina communis)) of the same compound?
The value was “resistant”.

With CCCCOCN(C(=O)CCl)c1c(CC)cccc1CC [Herbicide B, n-(butoxymethyl)-2',6'-diethyl-2-chloroacetanilide, reference compound] as the compound, how does the period of application (weeds in rice fields) read?
The period of application was “only brief periods of application”.
